Results taken from patent publication US12201796B2, “Devices configured to provide treatment at an Abreu brain thermal tunnel” (Brain Tunnelgenix Technologies Corp., priority 2014, dated 2025).

Key:
[1] = in vivo; cited from earlier work
[2] = transdermal melatonin patch on the skin of ABTT target area, research setting; settings: patch with water, propylene glycol, lauric acid, hydroxypropylcellulose; non-rate-limiting membrane; contact area 1.0 cm^2
Source text: As a solution to this problem, MEL was applied transdermally on the skin of ABTT target area 10 using a patch that contained, in a solvent formulation, water, propylene glycol, lauric acid, and hydroxypropylcellulose, and also comprised a non-rate-limiting membrane designed to have active contact with an area 1.0 cm^2.

[3] = comparison of caffeine absorption into the blood stream from a patch on ABTT terminus and a patch on an upper arm; format: in vivo
Protocol: One experimental technique used by Applicant to verify the efficacy of the systems, apparatuses, devices, processes, and methods disclosed herein was to compare absorption of a chemical into the blood stream. The chosen chemical was caffeine, and a comparison was made between distribution of caffeine in the body from a 15 mm by 15 mm patch placed on ABTT terminus 10 and a 15 mm by 15 mm patch placed on an upper arm. Caffeine concentration was measured in the same location on the body. […] As is evident from FIG. 106, the peak concentration of caffeine from the patch placed on the arm occurred five hours after placement of the patch, which peak concentration from the patch placed on ABTT terminus 10 was about 30 minutes after placement of the patch. […] Other compounds tested show similar results. […] In addition, it should be noted that use of a known patch would be disadvantageous if applied to ABTT terminus 10, because a lesser quantity of a drug is required to achieve the same results. […] In order to achieve the same effect at ABTT terminus 10 as application of a conventional patch in a conventional application, only about ⅔ the quantity of a drug is required for the same effect at ABTT terminus 10.

In the case of COc1ccc2[nH]cc(CCNC(C)=O)c2c1 [melatonin], the elimination half-life [1] is given as “short” and the “therapeutic effect of patch delivering melatonin through the skin of ABTT target area” value [2] is given as “shown to provide an intended therapeutic effect”.

In the case of Cn1c(=O)c2c(ncn2C)n(C)c1=O [caffeine], the “time of peak concentration of caffeine after placement of the patch” value ([3]; 15 mm by 15 mm patch placed on ABTT terminus, FIG. 106 curve 1416) is reported as “about 30 minutes”, the “time of peak concentration of caffeine after placement of the patch” value ([3]; 15 mm by 15 mm patch placed on upper arm, FIG. 106 curve 1414) is reported as “five” and the “peak concentration from patch on ABTT terminus relative to peak concentration from patch on upper arm” value ([3]; 15 mm by 15 mm patches, concentration measured in the same location on the body) is reported as “more than twice as high”.
